Here are results for eight compounds from patent publication EP4548971A1, “1,4-BENZOTHIAZEPINES AND RELATED COMPOUNDS WITH CYCLOPROPANOL GROUPS AS MULTI-TARGETED DRUGS” (Georg-August-Universität Göttingen Stiftung Öffentlichen …, priority 2023, dated 2025).

A word on the EC50: it is the concentration needed to bring the measured effect to its halfway point.

This experiment addresses T1, WT RyR2 (Mus musculus, UniProt E9Q401).
T1 construct: expressed in transfected cells
The experiment can be described thus: Time-lapse [Ca2+]ER assay (RyR2 R-CEPIA1er assay) in HEK-293 cells. Particulars: for RyR2 effect class: 25 µM in RyR2 R-CEPIA1er assay; for effect on [Ca^2+]ER (R-CEPIA1er fluorescence), in words: 25 µM, vs. 0.1 v/v% DMSO; for EC50: HEK-293 WT RyR2 R-CEPIA1er cells, range after the semicolon is not explained. The format is cell-based. The method, then: HEK-293 cells stably expressing R-CEPIA1er and WT RyR2 (generous gift from Takashi Murayama, Juntendo University School of Medicine, Tokyo) were cultured in Dulbecco's Modified Eagle medium (DMEM, Thermo Fisher Scientific, Darmstadt, Germany) supplemented with 10% fetal bovine serum (FBS, Thermo Fisher Scientific, Darmstadt, Germany), 0.9% Penicillin/Streptomycin (Merck KGaA, Darmstadt, Germany), 15ug/mL Blasticidine (Invivogen, Toulouse, France), 100 µg/mL Hygromycin (Merck KGaA, Darmstadt, Germany) and 400 µg/mL G418 (Thermo Fisher Scientific, Darmstadt, Germany) in a humidified 5% COz incubator at 37 °C. To induce the expression of WT RyR2 in the endoplasmic reticulum (ER), 2 µg/mL Doxycycline (Merck KGaA, Darmstadt, Germany) was added 24 h before experiments.
The fluorescent plate reader [Ca^2+]ER assay was performed according to the slightly modified protocol of Murayama & Kurebayashi [T. Murayama, N. Kurebayashi, Assays for Modulators of Ryanodine Receptor (RyR)/Ca(2+) Release Channel Activity for Drug Discovery for Skeletal Muscle and Heart Diseases. Curr. Protoc. […] After the cells were inducted with Doxycycline for 24 h, changes in ER calcium concentrations [Ca^2+]ER were measured on a multiwell plate reader TECAN Spark 20M at 37 °C. The 1000 × stock solutions of the test compounds were prepared in DMSO. Briefly, the culture medium was removed and 100 µl of Tyrode's solution containing 2 mM CaCl2 was added to the cells. The time courses were recorded in each well. Fluorescence was evoked by 560 nm excitation wavelength and collected in a bottom-read mode at 610 nm. Data was recorded every 10 s, exposure - 20 flashes, excitation bandwidth - 20 nm, emission bandwidth - 20 nm. 100 µl of 0 - 100 µM solution of test compound in Tyrode's solution containing 2 mM CaCh was injected in each well (speed 100 µl/s) at the 90 s time point. […] The 0.1 v/v% DMSO and 2 mM CaCh Tyrode's solution was used as a control.
The dose response curves were calculated using the software package GraphPad Prism version 8.3.1. (GraphPad Software, Inc.). All data are presented as mean ± S.D. in 3 independent experiments. Y=Bottom + (Top-Bottom)/(1+10^((LogEC50-X)*HillSlope)) was used where HillSlope describes the steepness of the curve, Top and Bottom are plateaus in the units of the Y axis.
The inventors measured changes in Ca^2+ levels in the endoplasmic reticulum (ER) of HEK-293 cells with inducible expression of wild-type RyR2 (WT RyR2) [T. Murayama, N. Kurebayashi, M. Ishigami-Yuasa, S. Mori, Y. Suzuki, R. Akima, H. Ogawa, J. Suzuki, K. Kanemaru, H. Oyamada, Y. Kiuchi, M. Iino, H. Kagechika, T. Sakurai, Efficient High-Throughput Screening by Endoplasmic Reticulum Ca(2+) Measurement to Identify Inhibitors of Ryanodine Receptor Ca(2+)-Release Channels. […] The cells additionally stably express the Ca^2+ fluorescence indicator R-CEPIA1er, which is a genetically encoded sensor protein of Ca^2+ in the ER ([Ca^2+]ER) [T. Murayama, N. Kurebayashi, Assays for Modulators of Ryanodine Receptor (RyR)/Ca(2+) Release Channel Activity for Drug Discovery for Skeletal Muscle and Heart Diseases. Curr. Protoc.
The fluorescence ratio F/F0 was calculated, where F0 - is the average fluorescence for the first 90 s, F - is the average fluorescence for the last 100 s, and normalized.

SMILES strings stand for the structures.

T1 sequence (E9Q401 whole entry): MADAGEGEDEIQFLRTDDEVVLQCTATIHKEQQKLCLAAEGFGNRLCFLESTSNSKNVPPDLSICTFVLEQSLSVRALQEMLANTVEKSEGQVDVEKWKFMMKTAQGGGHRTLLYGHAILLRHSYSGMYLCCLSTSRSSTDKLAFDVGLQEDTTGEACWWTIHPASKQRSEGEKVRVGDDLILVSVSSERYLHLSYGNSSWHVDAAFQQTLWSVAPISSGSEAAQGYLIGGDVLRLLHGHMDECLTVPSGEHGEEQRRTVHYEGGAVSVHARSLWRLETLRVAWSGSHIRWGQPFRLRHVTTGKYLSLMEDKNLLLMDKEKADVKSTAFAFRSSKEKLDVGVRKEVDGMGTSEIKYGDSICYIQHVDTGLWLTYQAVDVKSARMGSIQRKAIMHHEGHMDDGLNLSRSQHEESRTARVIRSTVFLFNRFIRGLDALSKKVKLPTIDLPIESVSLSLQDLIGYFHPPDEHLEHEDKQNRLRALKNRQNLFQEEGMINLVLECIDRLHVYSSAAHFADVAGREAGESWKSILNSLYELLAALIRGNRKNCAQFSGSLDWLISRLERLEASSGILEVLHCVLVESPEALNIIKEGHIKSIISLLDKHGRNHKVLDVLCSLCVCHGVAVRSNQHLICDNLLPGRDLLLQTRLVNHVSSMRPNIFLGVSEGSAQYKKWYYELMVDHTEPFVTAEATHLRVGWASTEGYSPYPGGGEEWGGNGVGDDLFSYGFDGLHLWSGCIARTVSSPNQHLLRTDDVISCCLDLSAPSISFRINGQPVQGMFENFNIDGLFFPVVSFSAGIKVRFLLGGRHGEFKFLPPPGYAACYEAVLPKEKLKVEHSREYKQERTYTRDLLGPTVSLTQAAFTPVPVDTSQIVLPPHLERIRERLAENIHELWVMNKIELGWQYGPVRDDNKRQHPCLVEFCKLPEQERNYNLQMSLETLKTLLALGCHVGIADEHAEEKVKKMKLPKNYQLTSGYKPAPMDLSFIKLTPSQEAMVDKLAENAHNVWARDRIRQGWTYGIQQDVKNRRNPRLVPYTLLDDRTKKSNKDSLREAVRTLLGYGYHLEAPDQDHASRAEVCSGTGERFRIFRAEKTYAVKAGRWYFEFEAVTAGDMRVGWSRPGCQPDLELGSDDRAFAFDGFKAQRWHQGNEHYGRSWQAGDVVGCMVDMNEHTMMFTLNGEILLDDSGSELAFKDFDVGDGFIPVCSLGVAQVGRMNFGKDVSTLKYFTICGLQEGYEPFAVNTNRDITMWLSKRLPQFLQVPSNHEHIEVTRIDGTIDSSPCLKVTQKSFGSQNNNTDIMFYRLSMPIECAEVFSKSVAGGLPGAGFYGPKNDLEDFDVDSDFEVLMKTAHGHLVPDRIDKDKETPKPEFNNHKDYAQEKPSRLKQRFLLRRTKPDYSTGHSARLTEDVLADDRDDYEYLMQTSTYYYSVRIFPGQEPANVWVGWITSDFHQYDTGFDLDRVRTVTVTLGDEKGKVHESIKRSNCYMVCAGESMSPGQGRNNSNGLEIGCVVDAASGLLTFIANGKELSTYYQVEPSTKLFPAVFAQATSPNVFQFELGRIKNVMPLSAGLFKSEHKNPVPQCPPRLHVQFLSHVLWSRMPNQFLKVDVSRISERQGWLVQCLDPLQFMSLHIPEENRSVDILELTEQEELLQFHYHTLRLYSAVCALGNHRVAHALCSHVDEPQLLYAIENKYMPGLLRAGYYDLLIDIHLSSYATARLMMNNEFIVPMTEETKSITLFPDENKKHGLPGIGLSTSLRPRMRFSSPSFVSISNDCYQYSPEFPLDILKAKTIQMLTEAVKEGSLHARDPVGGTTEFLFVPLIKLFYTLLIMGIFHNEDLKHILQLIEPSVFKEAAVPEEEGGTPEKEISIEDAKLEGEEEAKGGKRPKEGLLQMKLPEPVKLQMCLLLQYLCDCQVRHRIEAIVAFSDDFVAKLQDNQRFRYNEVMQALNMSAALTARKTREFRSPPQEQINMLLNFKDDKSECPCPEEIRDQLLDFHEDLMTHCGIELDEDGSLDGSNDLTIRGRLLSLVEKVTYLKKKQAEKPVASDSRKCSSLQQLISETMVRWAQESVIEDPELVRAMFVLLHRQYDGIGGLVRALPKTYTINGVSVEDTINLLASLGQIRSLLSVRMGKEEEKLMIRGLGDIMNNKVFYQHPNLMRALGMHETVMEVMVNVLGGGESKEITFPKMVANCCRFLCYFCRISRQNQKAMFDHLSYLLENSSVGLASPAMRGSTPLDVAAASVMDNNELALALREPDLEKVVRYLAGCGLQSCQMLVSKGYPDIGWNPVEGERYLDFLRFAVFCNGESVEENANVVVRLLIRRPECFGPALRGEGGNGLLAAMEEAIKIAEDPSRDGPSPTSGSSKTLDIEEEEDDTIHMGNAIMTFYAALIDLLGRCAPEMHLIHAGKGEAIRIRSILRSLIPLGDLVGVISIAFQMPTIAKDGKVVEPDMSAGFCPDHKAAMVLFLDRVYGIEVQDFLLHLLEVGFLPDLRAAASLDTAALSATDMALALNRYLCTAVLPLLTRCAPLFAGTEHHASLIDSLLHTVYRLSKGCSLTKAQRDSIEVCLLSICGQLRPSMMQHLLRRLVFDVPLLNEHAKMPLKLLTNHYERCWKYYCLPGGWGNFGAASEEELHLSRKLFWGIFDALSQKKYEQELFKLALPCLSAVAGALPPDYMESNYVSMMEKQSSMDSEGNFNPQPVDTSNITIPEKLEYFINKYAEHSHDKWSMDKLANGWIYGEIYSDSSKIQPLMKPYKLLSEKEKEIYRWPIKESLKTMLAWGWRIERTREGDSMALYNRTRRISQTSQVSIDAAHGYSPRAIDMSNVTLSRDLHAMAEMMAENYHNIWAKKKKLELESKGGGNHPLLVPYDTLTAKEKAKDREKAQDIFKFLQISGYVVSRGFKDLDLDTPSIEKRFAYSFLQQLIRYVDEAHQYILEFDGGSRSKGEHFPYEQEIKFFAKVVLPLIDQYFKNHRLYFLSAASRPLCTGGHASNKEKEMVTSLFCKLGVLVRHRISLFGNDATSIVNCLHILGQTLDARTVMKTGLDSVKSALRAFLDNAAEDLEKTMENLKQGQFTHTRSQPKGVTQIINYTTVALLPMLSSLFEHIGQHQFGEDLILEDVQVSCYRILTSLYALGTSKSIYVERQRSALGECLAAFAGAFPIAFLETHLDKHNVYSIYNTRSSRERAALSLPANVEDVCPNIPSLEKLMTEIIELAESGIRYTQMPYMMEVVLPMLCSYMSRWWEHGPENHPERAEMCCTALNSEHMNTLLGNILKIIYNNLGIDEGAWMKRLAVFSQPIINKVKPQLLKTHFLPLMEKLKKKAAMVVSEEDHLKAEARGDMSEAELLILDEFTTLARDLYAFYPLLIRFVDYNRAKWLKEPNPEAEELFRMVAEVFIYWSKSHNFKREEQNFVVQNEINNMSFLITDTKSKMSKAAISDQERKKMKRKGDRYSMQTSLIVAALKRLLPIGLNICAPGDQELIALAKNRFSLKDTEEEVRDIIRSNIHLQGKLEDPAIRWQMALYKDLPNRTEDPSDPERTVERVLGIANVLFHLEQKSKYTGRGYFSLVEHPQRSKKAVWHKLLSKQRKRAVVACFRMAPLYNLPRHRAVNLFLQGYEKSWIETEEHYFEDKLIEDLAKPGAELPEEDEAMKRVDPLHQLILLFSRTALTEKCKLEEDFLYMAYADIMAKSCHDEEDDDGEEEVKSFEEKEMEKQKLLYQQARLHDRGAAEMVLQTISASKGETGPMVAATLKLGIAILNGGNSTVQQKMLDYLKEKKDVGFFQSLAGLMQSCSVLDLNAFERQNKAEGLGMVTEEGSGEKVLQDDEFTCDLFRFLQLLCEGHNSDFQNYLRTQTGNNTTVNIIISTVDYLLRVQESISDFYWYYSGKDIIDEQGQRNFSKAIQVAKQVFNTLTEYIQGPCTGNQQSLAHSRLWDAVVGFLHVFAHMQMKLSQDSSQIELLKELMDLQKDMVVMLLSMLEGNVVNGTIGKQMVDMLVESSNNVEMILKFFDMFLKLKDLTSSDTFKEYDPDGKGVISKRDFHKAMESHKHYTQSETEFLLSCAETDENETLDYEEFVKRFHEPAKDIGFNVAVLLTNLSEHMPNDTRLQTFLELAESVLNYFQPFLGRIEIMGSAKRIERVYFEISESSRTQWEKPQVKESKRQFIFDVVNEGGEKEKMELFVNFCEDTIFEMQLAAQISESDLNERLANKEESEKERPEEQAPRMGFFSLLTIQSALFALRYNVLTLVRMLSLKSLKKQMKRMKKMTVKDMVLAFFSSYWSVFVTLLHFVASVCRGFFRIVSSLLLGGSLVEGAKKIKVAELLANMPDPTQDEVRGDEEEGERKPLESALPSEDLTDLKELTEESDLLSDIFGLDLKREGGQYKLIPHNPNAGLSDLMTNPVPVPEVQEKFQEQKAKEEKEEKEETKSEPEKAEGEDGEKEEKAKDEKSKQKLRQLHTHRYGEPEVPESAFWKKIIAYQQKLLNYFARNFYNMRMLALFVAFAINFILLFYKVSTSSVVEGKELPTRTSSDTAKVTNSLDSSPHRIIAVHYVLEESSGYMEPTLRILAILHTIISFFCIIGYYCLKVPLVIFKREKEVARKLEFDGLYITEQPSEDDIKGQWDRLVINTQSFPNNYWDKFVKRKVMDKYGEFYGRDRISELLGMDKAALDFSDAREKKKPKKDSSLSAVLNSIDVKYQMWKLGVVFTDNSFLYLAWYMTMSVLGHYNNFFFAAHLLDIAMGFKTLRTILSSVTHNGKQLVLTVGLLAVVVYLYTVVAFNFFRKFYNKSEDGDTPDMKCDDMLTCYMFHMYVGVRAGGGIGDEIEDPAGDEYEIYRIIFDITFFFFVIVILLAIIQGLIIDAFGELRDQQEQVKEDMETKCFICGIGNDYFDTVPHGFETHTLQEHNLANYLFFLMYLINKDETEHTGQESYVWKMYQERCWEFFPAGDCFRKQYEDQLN

On to `COc1ccc2c(c1)CN(CCCCC1(O)CC1)CCS2` [Compound 13d, 1-(4-(7-methoxy-2,3-dihydrobenzo[1,4-f]thiazepin-4(5H)-yl)butyl)cyclopropan-1-ol], for which the RyR2 effect class entry is recorded as “-” and the “effect on [Ca^2+]ER (R-CEPIA1er fluorescence), in words” value (“effect on [Ca^2+]ER” for short) is on record as “no significant RyR2-stabilizing effect”.

For `COc1ccc(SCCCN(CCCCC2(O)CC2)CCCCC2(O)CC2)cc1` [Compound 14c, 1,1'-(((3-((4-Methoxyphenyl)thio)propyl)azanediyl)bis(butane-4,1-diyl))bis(cyclopropan-1-ol)], the RyR2 effect class entry is “+” and the concentration giving a half-maximal response (EC50) is 18.6 nM.

Take `COc1ccc2c(c1)CN(Cc1ccc(C(=O)O)cc1)CCS2` [ARM210, reference compound]: the RyR2 effect class result is listed as “++” and the “effect on [Ca^2+]ER” value is “significantly increased [Ca^2+]ER”.

For the compound `COc1ccc(OCCCNCCCCC2(O)CC2)cc1` [Compound 13b, 1-(4-((3-(4-methoxyphenoxy)propyl)amino)butyl)cyclopropan-1-ol], the RyR2 effect class result is “+++” and the midpoint of the response, the EC50, lay at 81.5 nM.

For the compound `COc1ccc2c(c1)CN(C(=O)C(=O)O)CCS2` [Compound S36, reference compound], the RyR2 effect class entry was “+++” and the “effect on [Ca^2+]ER” value is “increase in R-CEPIA1er fluorescence”.

Turning to `COc1ccc2c(c1)CN(CCCCN(CCCCC1(O)CC1)CCCCC1(O)CC1)CCS2` [Compound 14a, 1,1'-(((4-(7-Methoxy-2,3-dihydrobenzo[1,4-f]thiazepin-4(5H)-yl)butyl)azanediyl)bis(butane-4,1-diyl))bis(cyclopropan-1-ol)], the RyR2 effect class entry is “+++”.

In the case of `COc1ccc2c(c1)CN(CCCCNCCCCC1(O)CC1)CCS2` [Compound 13a, 1-(4-((4-(7-Methoxy-2,3-dihydrobenzo[1,4-f]-thiazepin-4(5H)-yl)butyl)amino)butyl)cyclopropan-1-ol], the RyR2 effect class entry is “++”.

For the compound `COc1ccc(SCCCNCCCCC2(O)CC2)cc1` [Compound 13c, 1-(4-((3-((4-Methoxyphenyl)thio)propyl)amino)butyl)cyclopropan-1-ol], the RyR2 effect class result is recorded as “++” and a half-maximal effect (EC50) was put at 10.2 nM.
